# Reference: ChEMBL document CHEMBL1949611, “Functional characterization of rat glutaryl-CoA dehydrogenase and its comparison with straight-chain acyl-CoA dehydrogenase” (Bioorg Med Chem Lett, 2011)
# The source made the active and inactive calls. The rule behind the calls is not given here.
# Experiments:
# Rattus norvegicus [1] = species on record: Rattus norvegicus; experiment: Ratio of Kcat to Km for rat glutaryl-co A dehydrogenase expressed in Escherichia coli BL21
# Rattus norvegicus [2] = species on record: Rattus norvegicus; experiment: Activity of rat glutaryl-co A dehydrogenase expressed in Escherichia coli BL21
# [3] = (§1) Inhibition of rat glutaryl-co A dehydrogenase by spectrophotometry
# Rattus norvegicus [4] = species on record: Rattus norvegicus; experiment: as §1; conditions: for inhibition: TDE = time-dependent effect
# Rattus norvegicus [5] = species on record: Rattus norvegicus; experiment: Irreversible inhibition of rat glutaryl-co A dehydrogenase by dialysis method
# Rattus norvegicus [6] = species on record: Rattus norvegicus; experiment: Time-dependent inhibition of rat glutaryl-co A dehydrogenase after 160 mins by spectrophotometry
# Rattus norvegicus [7] = species on record: Rattus norvegicus; experiment: Irreversible inhibition of rat glutaryl-co A dehydrogenase by HPLC analysis
# Rattus norvegicus [8] = species on record: Rattus norvegicus; experiment: Time-dependent inhibition of rat glutaryl-co A dehydrogenase after 30 mins by spectrophotometry
# Rattus norvegicus [9] = species on record: Rattus norvegicus; experiment: Activity of rat glutaryl-co A dehydrogenase E370Q mutant expressed in Escherichia coli BL21
# Rattus norvegicus [10] = species on record: Rattus norvegicus; experiment: Activity of rat glutaryl-co A dehydrogenase E370A mutant expressed in Escherichia coli BL21
kcat/Km (Rattus norvegicus [1]),Km (Rattus norvegicus [2]),kcat (Rattus norvegicus [2]),Vmax (Rattus norvegicus [2]),kcat/Km (10'-3/microM/s) (Rattus norvegicus [1]),Compound,other results
230000 M⁻¹ s⁻¹,12 µM,2.7 s⁻¹,–,–,CCCC(=O)SCCNC(=O)CCNC(=O)C(O)C(C)(C)COP(=O)(O)OP(=O)(O)OC[C@H]1O[C@@H](n2cnc3c(N)ncnc32)[C@H](O)[C@@H]1OP(=O)(O)O (stereo not given in full),–
5.2 ×10⁻⁴ /µM/s,88 µM,0.046 s⁻¹,62 nmol/mg/min,–,CCCCCC/C=C\CC(=O)SCCNC(=O)CCNC(=O)C(O)C(C)(C)COP(=O)(O)OP(=O)(O)OC[C@H]1O[C@@H](n2cnc3c(N)ncnc32)[C@H](O)[C@@H]1OP(=O)(O)O (stereo not given in full),–
7.1 ×10⁻⁴ /µM/s,58 µM,0.041 s⁻¹,56 nmol/mg/min,–,CCCC/C=C/CC(=O)SCCNC(=O)CCNC(=O)C(O)C(C)(C)COP(=O)(O)OP(=O)(O)OC[C@H]1O[C@@H](n2cnc3c(N)ncnc32)[C@H](O)[C@@H]1OP(=O)(O)O (stereo not given in full),–
–,51 µM,0.099 s⁻¹,136 nmol/mg/min,1.9,CC/C=C/CC(=O)SCCNC(=O)CCNC(=O)C(O)C(C)(C)COP(=O)(O)OP(=O)(O)OC[C@H]1O[C@@H](n2cnc3c(N)ncnc32)[C@H](O)[C@@H]1OP(=O)(O)O (stereo not given in full),–
2.7 ×10⁻⁴ /µM/s,74 µM,0.02 s⁻¹,27 nmol/mg/min,–,CCCCCC/C=C/CC(=O)SCCNC(=O)CCNC(=O)C(O)C(C)(C)COP(=O)(O)OP(=O)(O)OC[C@H]1O[C@@H](n2cnc3c(N)ncnc32)[C@H](O)[C@@H]1OP(=O)(O)O (stereo not given in full),–
110000 M⁻¹ s⁻¹,20 µM,2.1 s⁻¹,–,–,CCCCCC(=O)SCCNC(=O)CCNC(=O)C(O)C(C)(C)COP(=O)(O)OP(=O)(O)OC[C@H]1O[C@@H](n2cnc3c(N)ncnc32)[C@H](O)[C@@H]1OP(=O)(O)O (stereo not given in full),–
–,–,–,–,–,CCC/C=C/C#CC(=O)SCCNC(=O)CCNC(=O)C(O)C(C)(C)COP(=O)(O)OP(=O)(O)OC[C@H]1O[C@@H](n2cnc3c(N)ncnc32)[C@H](O)[C@@H]1OP(=O)(O)O (stereo not given in full),Ki [3]: 43 µM; Kinact (Rattus norvegicus [4]): 0.024 min⁻¹; inhibition (Rattus norvegicus [4]): tde; inhibition (Rattus norvegicus [5]): Active; inhibition (Rattus norvegicus [6]): 20%; inhibition (Rattus norvegicus [7]): Active
–,–,–,–,–,CCCCCC#CC(=O)SCCNC(=O)CCNC(=O)C(O)C(C)(C)COP(=O)(O)OP(=O)(O)OC[C@H]1O[C@@H](n2cnc3c(N)ncnc32)[C@H](O)[C@@H]1OP(=O)(O)O (stereo not given in full),inhibition (Rattus norvegicus [8]): 2%; Ki [3]: 18 µM; Kinact (Rattus norvegicus [4]): 0.2 min⁻¹; inhibition (Rattus norvegicus [4]): tde; inhibition (Rattus norvegicus [5]): Active; inhibition (Rattus norvegicus [7]): Active
–,28 µM,1.1 s⁻¹,–,–,CCCCCCCC(=O)SCCNC(=O)CCNC(=O)C(O)C(C)(C)COP(=O)(O)OP(=O)(O)OC[C@H]1O[C@@H](n2cnc3c(N)ncnc32)[C@H](O)[C@@H]1OP(=O)(O)O (stereo not given in full),kcat/Km (10'-2/microM/s) (Rattus norvegicus [1]): 3.9
–,54 µM,0.18 s⁻¹,–,3.3,CCCCCCCCCC(=O)SCCNC(=O)CCNC(=O)C(O)C(C)(C)COP(=O)(O)OP(=O)(O)OC[C@H]1O[C@@H](n2cnc3c(N)ncnc32)[C@H](O)[C@@H]1OP(=O)(O)O (stereo not given in full),–
–,66 µM,0.083 s⁻¹,113 nmol/mg/min,1.3,CCCC/C=C\CC(=O)SCCNC(=O)CCNC(=O)C(O)C(C)(C)COP(=O)(O)OP(=O)(O)OC[C@H]1O[C@@H](n2cnc3c(N)ncnc32)[C@H](O)[C@@H]1OP(=O)(O)O (stereo not given in full),–
–,49 µM,0.24 s⁻¹,331 nmol/mg/min,4.9,CC/C=C\CC(=O)SCCNC(=O)CCNC(=O)C(O)C(C)(C)COP(=O)(O)OP(=O)(O)OC[C@H]1O[C@@H](n2cnc3c(N)ncnc32)[C@H](O)[C@@H]1OP(=O)(O)O (stereo not given in full),kcat (Rattus norvegicus [9]): 0.0021 s⁻¹; kcat (Rattus norvegicus [10]): 0.00078 s⁻¹
